# Measurements reported in patent US9522888B2, “Substituted bicyclic compounds” (BRISTOL-MYERS SQUIBB COMPANY, priority 2014, dated 2016).
# “Also recorded” adds a separate entry of the source.
# Assays:
# circulating lymphocytes [1] = assay: Blood Lymphocyte Reduction (BLR) assay in rat; type: in vivo, Lewis rats; conditions: oral, 0.1 mg/kg; for Percent reduction vs. control at 24 hr post-dose: blood lymphocytes; for lymphocyte reduction: rodent BLR assay, 24 hours post-dose, versus vehicle treated group
# Procedure: (§1) Blood Lymphocyte Reduction (BLR) Assay in Rodent:
# (§2) Lewis rats or BALB/c mice were dosed orally with vehicle alone (polyethylene glycol 300, “PEG300”) or with test compounds. Compounds were dosed as a solution or suspension in the vehicle, adjusted to reflect the free amount of test article in the event that salt forms are utilized. Blood was drawn at 24 hr and blood lymphocyte counts were determined on an ADVIA 120 Hematology Analyzer (Siemens Healthcare Diagnostics). The results were measured as a reduction in the percentage of circulating lymphocytes as compared to the vehicle treated group at the time of measurement. The results represent the average results of all animals within each treatment group (n=2-4).
# anti-dsDNA antibodies = assay: MRL/lpr lupus model: anti-dsDNA antibody titers (ELISA); type: in vivo, Male MRL/lpr mice; conditions: MRL/lpr mice; for Anti-dsDNA antibody titers (23 weeks of age) (Mean): ratio to pooled MRL/lpr immune serum titer
# Procedure: (§3) MRL/lpr is a spontaneous model of lupus. Male MRL/lpr mice (Jackson Laboratory) at the age of 12-14 weeks were enrolled for the study (N=12). Mice were dosed p.o. daily with vehicle (18.4% (w/v) hydroxypropyl-b-cyclodextrin in 13.8 mM citric acid) or with Example 681 at 0.06, 0.3, 1.5 mg/kg. Mice were bled every other week for anti-dsDNA antibodies measured by ELISA using pooled serum from diseased MRL/lpr mice as a positive comparator in each assay. The data were expressed in arbitrary units as a ratio of the titer of the test serum to the titer of the pooled MRL/lpr immune serum.
# [2] = system: MOG35-55 induced EAE, clinical score; assay: Mouse Experimental Autoimmune Encephalomyelitis Assay (EAE); type: in vivo, C57BL/6 mice; conditions: for Clinical scores on day 22, Mean: C57BL/6 mice, prophylactic oral; for inhibition of disease progression as measured by clinical scores / Clinical scores on day 21 (Mean): C57Bl/6 mice; for inhibition of disease progression as measured by clinical scores: prophylactic oral dosing regimen, result in words; for Clinical scores on day 21 (Mean): mouse EAE, prophylactic oral dosing
# circulating lymphocytes [3] = assay: Blood Lymphocyte Reduction (BLR) assay in mouse; type: in vivo, BALB/c mice; conditions: oral, 0.5 mg/kg; for lymphocyte reduction: mice, 24 hours post dose
# Procedure: as §1, §2
# kidney histology score = assay: MRL/lpr lupus model: kidney histological analysis; type: in vivo, Male MRL/lpr mice; conditions: MRL/lpr mice; for Kidney Histology (nephritis) 23 weeks of age (Mean): total score, highest possible score=36
# Procedure: as §3
# At the end of study, one kidney was collected into 10% neutral buffered formalin and ZincTris fixatives. Fixed tissues were processed into paraffin blocks, sectioned at 3 μm, and stained with H&E or PASH. Kidney sections were graded using following criteria: Glomerular Damage: 1. Mesangial matrix thickening, cell proliferation, 2. Crescent formation, cellular deposits/casts in Bowman's space, 3. Cellular infiltration, mononuclear cells in glomerular tufts, 4. Fibrosis of Bowman's capsule. Tubular damage: 1. Infiltration of mononuclear cells, 2. Severity of tubular damage, 3. Protein casts. Tubulo-interstitial damage: 1. Fibrosis, 2. Infiltration of mononuclear cells. Each subcategory was assigned a score from 0-4, with the scores for glomerular indices representing the mean from 20 glomeruli per kidney. The total score for each mouse was the sum of the above 9 subcategories, with the highest possible score=36.
# [4] = system: adjuvant-induced arthritis, hind paw volume; assay: Rat Adjuvant Induced Arthritis Assay (AA); type: in vivo, Male Lewis rats; conditions: Lewis rat; for paw swelling (mL) on day 22, Mean: once daily oral prophylactic
# Procedure: Rat Adjuvant Induced Arthritis Assay (AA) The rat adjuvant-induced arthritis model is an animal model for human rheumatoid arthritis. Male Lewis rats (150-175 g; Harlan, n=8 treatment group) were immunized at the base of the tail with 100 μl of 10 mg/ml freshly ground Mycobacterium butyricum (Difco Laboratories) in incomplete Freund's adjuvant (sigma). Animals were dosed once daily with the test article (as a solution or suspension in the vehicle) or vehicle alone (polyethylene glycol 300, “PEG300”) starting from the day of immunization. The volumes of their hind paws were measured in a water displacement plethysmometer (Ugo Basile, Italy). The baseline paw measurements were taken before onset of the disease (between day 7 to day 10). […] All procedures involving animals were reviewed and approved by the Institutional Animal Care Use Committee.
# [5] = system: guinea pig myelin basic protein induced EAE, clinical score; assay: Rat Experimental Autoimmune Encephalomyelitis (EAE); type: in vivo, Female Lewis rats; conditions: Lewis rat; for Clinical Score on Day 11 (Mean): rat EAE, prophylactic oral dosing
# Procedure: Rat Experimental Autoimmune Encephalomyelitis (EAE):
# Female Lewis rats (150-200 g; Harlan) were immunized at the base of the tail with 0.1 ml of a complete Freund's adjuvant emulsion containing 0.5 mg/mL guinea pig myelin basic protein (Genemed Synthesis) and 2 mg/mL Mycobacterium butyricum (Difco). Beginning on Day 7, rats (n=11/group) were scored individually at least 3×/wk according to the following scheme:
# Average clinical scores were calculated for each treatment group on each day of assessment.
# [6] = p.o. daily 0.06, 0.3, 1.5 mg/kg, result in words
# [7] = prophylactic oral dosing regimen, result in words
structure (smiles),measurement,setting,value
"COc1ccccc1CC[C@@H]1CCc2cc([C@H]3CC[C@](N)(CO)C3)ccc2C1 [Example 681, ((1R,3S)-1-amino-3-((S)-6-(2-methoxyphenethyl)-5,6,7,8-tetrahydronaphthalen-2-yl)cyclopentyl)methanol]",Percent reduction vs. control at 24 hr post-dose,circulating lymphocytes [1],53%
same,lymphocyte reduction,circulating lymphocytes [1],53%
same,Anti-dsDNA antibody titers (23 weeks of age) (Mean),anti-dsDNA antibodies; 0.06 mg/kg p.o. daily,1.861 arbitrary units
same,Anti-dsDNA antibody titers (23 weeks of age) (Mean),anti-dsDNA antibodies; 0.3 mg/kg p.o. daily,0.978 arbitrary units
same,Anti-dsDNA antibody titers (23 weeks of age) (Mean),anti-dsDNA antibodies; 1.5 mg/kg p.o. daily,1.023 arbitrary units
same,inhibition of disease progression as measured by anti-dsDNA titers,anti-dsDNA antibodies; [6],showed inhibition of disease progression
same,"Clinical scores on day 22, Mean",[2]; 0.1 mg/kg,3.1
same,"Clinical scores on day 22, Mean",[2]; 0.5 mg/kg,1.1
same,"Clinical scores on day 22, Mean",[2]; 2 mg/kg,0.8
same,inhibition of disease progression as measured by clinical scores,[2],showed inhibition of disease progression; also recorded: inhibit disease progression
same,lymphocyte reduction,circulating lymphocytes [3],85%
same,Mouse Blood Lymphocyte Reduction Assay at 24 hr post-dose Percent reduction vs. control,circulating lymphocytes [3],85%
same,Kidney Histology (nephritis) 23 weeks of age (Mean),kidney histology score; 0.06 mg/kg p.o. daily,10.13
same,Kidney Histology (nephritis) 23 weeks of age (Mean),kidney histology score; 0.3 mg/kg p.o. daily,10.00
same,Kidney Histology (nephritis) 23 weeks of age (Mean),kidney histology score; 1.5 mg/kg p.o. daily,12.63
same,inhibition of disease progression as measured by kidney histology,kidney histology score; [6],showed inhibition of disease progression
"CCOCCC[C@@H]1CCc2cc([C@H]3CC[C@](N)(CO)C3)ccc2C1 [Example 679, ((1R,3S)-1-amino-3-((S)-6-(3-ethoxypropyl)-5,6,7,8-tetrahydronaphthalen-2-yl)cyclopentyl)methanol]","paw swelling (mL) on day 22, Mean",[4]; 0.1 mg/kg,1.55 mL
same,"paw swelling (mL) on day 22, Mean",[4]; 0.5 mg/kg,0.36 mL
same,"paw swelling (mL) on day 22, Mean",[4]; 2.50 mg/kg,0.00 mL
same,inhibition of disease progression as measured by reduced paw swelling,[4]; [7],showed inhibition of disease progression
same,Percent reduction vs. control at 24 hr post-dose,circulating lymphocytes [1],65%
same,lymphocyte reduction,circulating lymphocytes [1],65%
same,inhibition of disease progression as measured by clinical scores,[2],showed inhibition of disease progression; also recorded: inhibit disease progression
same,Clinical scores on day 21 (Mean),[2]; 0.6 mg/kg,2.9
same,Clinical scores on day 21 (Mean),[2]; 3 mg/kg,1.8
same,Clinical scores on day 21 (Mean),[2]; 15 mg/kg,1.3
same,inhibition of disease progression as measured by reduced clinical scores,[5]; [7],showed inhibition of disease progression
same,Clinical Score on Day 11 (Mean),[5]; 0.3 mg/kg,0.36
same,Clinical Score on Day 11 (Mean),[5]; 1.0 mg/kg,0.09
same,Clinical Score on Day 11 (Mean),[5]; 3.0 mg/kg,0.02
same,lymphocyte reduction,circulating lymphocytes [3],59%
same,Mouse Blood Lymphocyte Reduction Assay at 24 hr post-dose Percent reduction vs. control,circulating lymphocytes [3],59%
